From US7557099B2, “Pyrrolobenzodiazepines as key intermediates in the synthesis of dimeric cytotoxic pyrrolobenzodiazepines” (Spirogen Limited, priority 2004, dated 2009)
pEC50, pIC50: −log10 of the molar value. Like-named read-outs stand apart in the source and are kept apart here.

What was measured:
[1] = test system: approximately 60 human tumour cell lines; assay: NCI 60 cell screen, SRB assay; type: cell-based; conditions: Homo sapiens, 48 hour continuous exposure
Experimental: The National Cancer Institute (NCI), Bethesda, Md., USA has available an in vitro cytotoxicity screen which consists of approximately 60 human tumour cell lines against which compounds are tested at a minimum of five concentrations each differing 10-fold. A 48 hour continuous exposure protocol is used, where cell viability or growth is estimated with an SRB protein assay.
The test compounds were evaluated against approximately 60 human tumour cell lines. The NCI screening procedures were described in detail by Monks and co-workers (Monks, A et al., Journal of the National Cancer Institute, 1991, 83, 757). Briefly, cell suspensions were diluted according to the particular cell type and the expected target cell density (5000-40,000 cells per well based on cell growth characteristics), and added by pipette (100 μL) into 96-well microtitre plates. The cells were allowed a preincubation period of 24 hours at 37° C. for stabilisation. Dilutions at twice the intended test concentration were added at time zero in 100 μL aliquots to the wells. The test compounds were evaluated at five 10-fold dilutions (10^−4, 10^−5, 10^−6, 10^−7 and 10^−[…]). The test compounds were incubated for 48 hours in 5% CO2 atmosphere and 100% humidity. The cells were then assayed using the sulphorhodamine B assay. A plate reader was used to read the optical densities and a microcomputer processed the readings into GI50 values (in Moles), which is the dosage required to limit cell growth to 50%.

[2] = test system: K562 human chronic myeloid leukaemia cells; assay: In vitro cytotoxicity, K562 cells, MTT assay; type: cell-based; conditions: Homo sapiens
Experimental: K562 human chronic myeloid leukaemia cells were maintained in RPM1 1640 medium supplemented with 10% fetal calf serum and 2 mM glutamine at 37° C. in a humidified atmosphere containing 5% CO2 and were incubated with a specified dose of drug for 1 hour or 96 hours at 37° C. in the dark. The incubation was terminated by centrifugation (5 min, 300 g) and the cells were washed once with drug-free medium. Following the appropriate drug treatment, the cells were transferred to 96-well microtiter plates (10^4 cells per well, 8 wells per sample). Plates were then kept in the dark at 37° C. in a humidified atmosphere containing 5% CO2. The assay is based on the ability of viable cells to reduce a yellow soluble tetrazolium salt, 3-(4,5-dimethylthiazol-2-yl)-2,5-diphenyl-2H-tetrazolium bromide (MTT, Aldrich-Sigma), to an insoluble purple formazan precipitate. Following incubation of the plates for 4 days (to allow control cells to increase in number by approximately 10 fold), 20 μL of MTT solution (5 mg/mL in phosphate-buffered saline) was added to each well and the plates further incubated for 5 hours. The plates were then centrifuged for 5 minutes at 300 g and the bulk of the medium pipetted from the cell pellet leaving 10-20 μL per well. DMSO (200 μL) was added to each well and the samples agitated to ensure complete mixing. The optical density was then read at a wavelength of 550 nm on a Titertek Multiscan ELISA plate reader, and a dose-response curve was constructed. For each curve, an IC50 value was read as the dose required to reduce the final optical density to 50% of the control value.

linear pBR322 DNA = assay: DNA cross-linking, electrophoretic assay (XL50); type: biochemical; conditions: concentration giving 50% cross-linked plasmid DNA; 2 hours, 37° C., pH 7.2
Experimental: The extent of DNA cross-linking induced by each PBD dimer was determined using the electrophoretic assay method of Hartley, et al. (Hartley, J. A., Berardini, M. D., and Souhami, R. L. (1991) Anal. Biochem. 193, 131-134) based on the principle that, following complete denaturation of linear pBR322 DNA (˜4,300 bp) to the single-stranded (SS) form, an interstrand cross-link results in renaturation to double-stranded (DS) in a neutral gel.
Closed-circular DNA was linearized with HindIII, then dephosphorylated and finally 5′-singly end-labelled using [γ^32P]-ATP and polynucleotide kinase. Reactions containing 30-40 ng of DNA and the test compound were carried out in aqueous TEOA (25 mM triethanolamine, 1 mM EDTA, pH 7.2) buffer at 37° C. in a final volume of 50 μl for 2 hours. Reactions were terminated by addition of an equal volume of stop solution (0.6 M NaOAc, 20 mM EDTA, 100 μg/ml tRNA) followed by precipitation with ethanol. Following centrifugation, the supernatant was discarded and the pellet dried by lyophilization. Samples were re-suspended in 10 μl of strand separation buffer (30% DMSO, 1 mM EDTA, 0.04% bromophenol blue and 0.04% xylene cylanol) and denatured by heating to 90° C. for 2.5 min, followed by immersion in an ice/water bath. Control non-denatured samples were re-suspended in 10 μl of non-denaturing buffer solution (0.6% sucrose, 0.04% bromophenol blue in aqueous TAE buffer [40 mM Tris, 20 mM acetic acid, 2 mM EDTA, pH 8.1]) and loaded directly onto the gel for comparison.
Electrophoresis was carried out for 14-16 h at 40 V using a 0.8% submerged agarose gel (20×25×0.5 cm) in TAE buffer. Gels were dried under vacuum for 2 hour at 80° C. onto one layer each of Whatman 3MM and DE8I filter papers using a BioRad 583 gel dryer. Autoradiographs were obtained after exposure of Hyperfilm-MP film (Amersham plc, U.K.) to the dried gel for either 4 hour with a screen (or over night, without a screen, to obtain a sharper image). Film bands were quantitated using a BioRad GS-670 imaging laser densitometer. Percentage cross-linking was calculated by measuring the total DNA in each lane (summed density for the double-stranded [DS] and single-stranded [SS] bands) relative to the amount of cross-linked DNA (density of DS band alone). A dose-response curve was derived by plotting drug concentration against the determined percentage level of cross-linked DNA which was then analysed to determine the concentration of test compound that results in 50% cross-linked plasmid DNA (XL50).

[3] = 96 hr exposure, sub-table of 16e-j, read-out: IC50 96 hr exposure
[4] = 96 hr exposure, sub-table of 29a-c, read-out: IC50 96 hr exposure

Compound | GI50 [1] [nM] | pIC50 ([2]; 1 hr exposure, read-out: IC50 1 hr exposure) | pEC50 (linear pBR322 DNA) | pIC50 [2, 3] | GI50 ([1]; sub-table of 29a-c) [nM] | pIC50 [2, 4]
COc1ccc2c(c1)C(=O)N1CCC(OCCCCCCOC3CCN4C(=O)c5cc(OC)ccc5N=C[C@@H]34)[C@@H]1C=N2 (stereo partly drawn) [Compound 16d, 1,1′-[(Hexane-1,6-diyl)dioxy]bis[(11aS)-7-methoxy-1,2,3,11a-tetrahydro-5H-pyrrolo[2,1-c][1,4]benzodiazepine-5-one]] | 310 | 6.00 | 6.12 | – | – | –
COc1ccc2c(c1)C(=O)N1CCC(OCCCCCCCCOC3CCN4C(=O)c5cc(OC)ccc5N=C[C@@H]34)[C@@H]1C=N2 (stereo partly drawn) [Compound 16f, 1,1′-[(Octane-1,8-diyl)dioxy]bis[(11aS)-7-methoxy-1,2,3,11a-tetrahydro-5H-pyrrolo[2,1-c][1,4]benzodiazepine-5-one]] | 19 | – | 5.85 | 8.35 | – | –
COc1ccc2c(c1)C(=O)N1CCC(OCCCCCCCCCOC3CCN4C(=O)c5cc(OC)ccc5N=C[C@@H]34)[C@@H]1C=N2 (stereo partly drawn) [Compound 16g, 1,1′-[(Nonane-1,9-diyl)dioxy]bis[(11aS)-7-methoxy-1,2,3,11a-tetrahydro-5H-pyrrolo[2,1-c][1,4]benzodiazepine-5-one]] | 19 | – | 5.82 | 7.59 | – | –
COc1ccc2c(c1)C(=O)N1CCC(OCCCCCCCCCCOC3CCN4C(=O)c5cc(OC)ccc5N=C[C@@H]34)[C@@H]1C=N2 (stereo partly drawn) [Compound 16h, 1,1′-[(Decane-1,10-diyl)dioxy]bis[(11aS)-7-methoxy-1,2,3,11a-tetrahydro-5H-pyrrolo[2,1-c][1,4]benzodiazepine-5-one]] | 54 | – | 5.30 | 6.45 | – | –
C=C1CN2C(=O)c3cc(OC)ccc3N=C[C@H]2C1OCCCCCCCCCOC1C(=C)CN2C(=O)c3cc(OC)ccc3N=C[C@@H]12 (stereo partly drawn) [Compound 29b, 1,1′-[(Nonane-1,9-diyl)dioxy]bis[(11aS)-7-methoxy-2-methylene-1,2,3,11a-tetrahydro-5H-pyrrolo[2,1-c][1,4]benzodiazepine-5-one]] | – | – | 5.82 | – | 20.9 | 7.47
C=C1CN2C(=O)c3cc(OC)ccc3N=C[C@H]2C1OCCCCCCCCCCOC1C(=C)CN2C(=O)c3cc(OC)ccc3N=C[C@@H]12 (stereo partly drawn) [Compound 29c, 1,1′-[(Decane-1,10-diyl)dioxy]bis[(11aS)-7-methoxy-2-methylene-1,2,3,11a-tetrahydro-5H-pyrrolo[2,1-c][1,4]benzodiazepine-5-one]] | – | – | 5.41 | – | 13.2 | 7.00
